Results reported in US6207399A, “Methods of determining endogenous thrombin potential (ETP) and thrombin substrates for use in said methods” (Hemker; Hendrik Coenraad, priority 1995, dated 2001).

Columns and labels:
euglobulin thrombin = molecular target: T1, euglobulin thrombin (Homo sapiens, UniProt P00734); experiment: Decay constants of thrombin in plasma; assay type: biochemical; details: [S] 25 mM in plasma
T1 construct: The euglobulin thrombin fraction was prepared from defibrinated human plasma; from tissue; host or cells: defibrinated human plasma (euglobulin fraction, acid precipitation, method of Josso and Prou-Wartelle)
Method: (§1) To this mixture was added 10 μL of a thrombin preparation to achieve a final concentration of 100 nM. At regular time intervals (5-10 s) 10 μL samples were subsampled into 490 μL buffer B which contained 200 μM of S2238 to determine thrombin activity. After 2 min the reaction was stopped by adding 300 μL 1M citric acid. The moment of sampling and stopping were recorded on a personal computer with pushbutton-equipped pipettes. The optical density was then read at 405 nm and the obtained amidolytic activities were used to calculate the decay constants. The obtained decay constant is the sum of the decay constants of the reaction of thrombin with antithrombin III (k1) and α2 -macroglobulin (k2).
as §1, with “Decay constants of thrombin in plasma: To 120 μL defibrinated plasma was added: 50 μL of buffer A which contained the substances to be tested. To” for “To”, “was” for “was then”

[1] = tested on: thrombin generation in tissue factor triggered plasma; experiment: Manual determination of thrombin generation in plasma (subsampling method) and calculated prothrombinase activity; assay type: biochemical, human
Method: Manual determination of thrombin generation in plasma: Extrinsic pathway: To 480 μL defibrinated plasma were added: 172 μL buffer A which contains the substrate at concentrations between 0 to 2000 μM and 20 μL of a 54 μM phospholipid solution (final concentration: 1.5 μM). After incubation of 4 min at 37° C., 24 μL tissue factor (undiluted) was added. Thrombin formation started at zero time by adding 24 μL of a 0.5 M CaCl2 solution (final concentration: 16.67 mM). At regular time intervals of 12 s samples of 10 μL were subsampled as described above. From the amidolytic activities thus obtained, the thrombin generation curve can be drawn. […] Intrinsic pathway: To 480 μL defibrinated plasma were added: 168 μL buffer A which contains the substrate at concentrations between 0 to 1000 μM and 48 μL Actin FS (undiluted). This mixture was intensively mixed and incubated for 4 min at 37° C. Thrombin generation was started at zero time by adding 24 μL of a 0.5 M CaCl2 solution (final concentration: 16.67 mM).
Influence of the substrate on the prothrombinase-complex: With the obtained decay constants and from the curves obtained by the subsampling method we calculated the course of prothrombin conversion and the course of prothrombinase concentration.
Manual determination of thrombin generation in plasma: Extrinsic pathway: To 480 μL defibrinated plasma were added: 172 μL buffer A which contained the substrate at concentrations between 0 to 2000 μM and 20 μL of a 54 μM phospholipid solution (final concentration: 1.5 μM). After incubation for 4 min at 37° C., 24 μL tissue factor (undiluted) was added. Thrombin formation started at zero time by adding 24 μL of a 0.5 M CaCl2 solution (final concentration: 16.67 mM). At regular time intervals of 12 s samples of 10 μL were subsampled as described above. From the amidolytic activities thus obtained, the thrombin generation curve can be drawn.
Influence of the substrate on the prothrombinase-compzex: With the obtained decay constants and from the curves obtained by the subsampling method we calculated the course of prothrombin conversion and the course of prothrombinase concentration.

[2] = tested on: thrombin formation in plasma; experiment: Continuous registration of the thrombin generation curve (continuous assay of ETP); assay type: biochemical, human; details: 25 mM hydroxylamine
Method: Continuous registration of the thrombin generation curve: Extrinsic pathway: In a polystyrene microcuvette were added: 400 μL defibrinated plasma, 20 μL of a 45 μM phospholipid solution (final concentration: 1.5 μM), 140 μL of buffer A which contains the substrate at the desired final concentration (100-2000 μM). After 4 min of incubation at 37° C., 20 μL tissue factor (undiluted) was added. Thrombin generation was started by adding 20 μL of a 0.5 M CaCl2 solution (final concentration: 16.67 mM); during the measurement the temperature was kept at 37° C. The optical density was monitored at 405 nm. From the obtained optical density curve, the first derivative was calculated. […] The optical density was measured at 37° C. at 405 nm during 20 min.
Continuous registration of the thrombin generation curve: Extrinsic pathway: In a polystyrene microcuvette were added: 400 μL defibrinated plasma, 20 μL of a 45 μM phospholipid solution (final concentration: 1.5 μM) and 140 μL of buffer A which contains the substrate at the desired final concentration (500 μM). […] The optical density was monitored at 405 nm. From the obtained optical density curve, the first derivative was calculated giving the enzyme concentration during the measurement. […] The optical density was measured at 37° C. at 405 nm during 20 min. […] The optical density was measured at 37° C. at 405 nm during 25 min.

NO [hydroxylamine, reference compound]
(k1,corr) = k1,corr /1.856 (euglobulin thrombin): 0.585 min⁻¹
k1,corr : k1 after correcting for k2,M and 0.170 (euglobulin thrombin): 1.085 min⁻¹
k1 : AT-III dependent decay of thrombin (euglobulin thrombin): 1.253 min⁻¹
k2 : α2 M dependent decay of thrombin (euglobulin thrombin): 0.059 min⁻¹
koverall (euglobulin thrombin): 1.312 min⁻¹
t1/2 (euglobulin thrombin): 31.70 s
k2,M : k2 determined by the subsampling method ([1]; [S] 25 mM in plasma): 0.057 min⁻¹
influence on the prothrombinase complex / coagulation cascade ([1]; calculated from decay constants and manual thrombin generation curves): did not influence the coagulation cascade
AA: amidolytic activity (maximum) ([1]; hydroxylamine 25 mM): 383.88 mOD/min
PT: prothrombinase concentration (maximum) ([1]; hydroxylamine 25 mM): 1227 mOD/min
T: thrombin concentration (maximum) ([1]; hydroxylamine 25 mM): 378.03 mOD/min
t: time point at which maximum of amidolytic activity is achieved ([1]; hydroxylamine 25 mM): 72 s
t: time point at which maximum of prothrombinase concentration is achieved ([1]; hydroxylamine 25 mM): 36 s
t: time point at which maximum of thrombin concentration is achieved ([1]; hydroxylamine 25 mM): 72 s
residual amidolytic activity of the α2 M-thrombin complex [2]: substantially reduced
